For orientation: IC50 means the concentration needed to halve the response being measured. A high value points to a need for much substance.

Eight molecules from US5998405A, “Fused tropane-derivatives as neurotransmitter reuptake inhibitors” (NeuroSearch A/S, priority 1996, dated 1999) can be followed below.

Counter-ions that a name gives are not always drawn.

Type in all cases: biochemical, Wistar rat
Test [1] has as its target T1, ^3 H-dopamine uptake in striatal synaptosomes (Rattus norvegicus, UniProt P23977).
T1 construct: Corpi striati from male Wistar rats (150-200 g) are homogenized; from tissue; host or cells: striatum (corpus striatum) of male Wistar rats, P2 synaptosomal pellet
The test can be described thus: In vitro inhibition of 3H-dopamine (3H-DA) uptake in striatal synaptosomes. Conditions: 3H-DA 1 nM, 25 min at 37° C. From the text: (§1) The compounds of the invention have been tested for their ability to inhibit reuptake of dopamine(DA) noradrenaline(NA) and serotonine(5-HT) in synaptosomes.
(§2) Specific neurotransmitter transporters/uptake sites on nerve terminals presumably function to terminate neuronal signaling by removing the neurotransmitters dopamine, noradrenaline and serotonine, respectively, from the synaptic cleft. The activity of the transporter integral proteins can be measured in vitro by synaptosomal uptake of ^3 H-dopamine, ^3 H-noradrenaline and ^3 H-serotonine, respectively.
In Vitro Inhibition of ^3 H-dopamine (^3 H-DA) Uptake in Striatal Synaptosomes
(§3) Tissue preparations: Preparations are performed at 0-4° C. unless otherwise indicated. Corpi striati from male Wistar rats (150-200 g) are homogenized for 5-10 sec in 100 volumes of ice-cold 0.32M sucrose containing 1 mM pargyline using an Ultra-Turrax homogenizer. Monoamine oxidase activity will be inhibited in the presence of pargyline. The homogenate is centrifuged at 1000×g for 10 min. The resulting supernatant is then centrifuged at 27,000×g for 50 min and the supernatant is discarded. The pellet (P2) is resuspended in oxygenated (equilibrated with an atmosphere of 96% O2 : 4% CO2 for at least 30 min) Krebs-Ringer incubation buffer (8000 ml per g of original tissue) at pH 7.2 containing 122 mM NaCl, 0.16 mM EDTA, 4.8 mM KCl, 12.7 mM Na2 HPO4, 3.0 mM NaH2 PO4, 1.2 mM MgSO4, 1 mM CaCl2, 10 mM glucose and 1 mM ascorbic acid.
(§4) Assay: Aliquots of 4.0 ml tissue suspension are added to 100 μl of test solution and 100 μl of ^3 H-DA (1 nM, final concentration), mixed and incubated for 25 min at 37° C. Non-specific uptake is determined using benztropine (10 μM, final concentration). After incubation the samples are poured directly onto Whatman GF/C glass fibre filters under suction. The filters are then washed three times with 5 ml of ice-cold 0.9% (w/v) NaCl solution. The amount of radioactivity on the filters is determined by conventional liquid scintillation counting. Specific uptake is calculated as the difference between total uptake and non-specific uptake.
The test value is given as IC50 (the concentration (μM) of the test substance which inhibits the specific binding of ^3 H-DA by 50%).

Test [2] concerns the target T2, ^3 H-noradrenaline uptake in hippocampal synaptosomes (Rattus norvegicus, UniProt Q63380).
T2 construct: Hippocampi from male Wistar rats (150-200 g) are homogenized; from tissue; host or cells: hippocampus of male Wistar rats, P2 synaptosomal pellet
The test can be described thus: In vitro inhibition of 3H-noradrenaline (3H-NA) uptake in hippocampal synaptosomes. Conditions: 3H-NA 1 nM, 90 min at 37° C.
Source text: as §1, §2
In Vitro Inhibition of ^3 H-noradrenaline (^3 H-NA) Uptake in Hippocampal Synaptosomes
as §3, with “Tissue preparation:” for “Tissue preparations:”, “indicated. Hippocampi” for “indicated. Corpi striati”, “buffer (2000” for “buffer (8000”, “MgSO4, 0.97” for “MgSO4, 1”
as §4, with “H-NA” for “H-DA”, “90” for “25”, “desipramine (1” for “benztropine (10”
The test value is given as IC50 (the concentration (μM) of the test substance which inhibits the specific binding of ^3 H-NA by 50%).

Test [3] has as its target T3, ^3 H-5-hydroxytryptamine (serotonin) uptake in cortical synaptosomes (Rattus norvegicus, UniProt P31652).
T3 construct: Cerebral cortices from male Wistar rats (150-200 g) are homogenized; from tissue; host or cells: cerebral cortex of male Wistar rats, P2 synaptosomal pellet
The test is described as follows: In vitro inhibition of 3H-5-hydroxytryptamine (3H-5-HT, serotonin) uptake in cortical synaptosomes. The note with it: 3H-5-HT 1 nM, 30 min at 37° C.
Source text: as §1, §2
In Vitro Inhibition of ^3 H-5-hydroxytryptamine (^3 H-5-HT, Serotonin) Uptake in Cortical Synaptosomes
as §3, with “preparation:” for “preparations:”, “Cerebral cortices” for “Corpi striati”, “(1000” for “(8000”
as §4, with “H-5-HT” for “H-DA”, “30” for “25”, “citalopram (1” for “benztropine (10”
The test value is given as IC50 (the concentration (μM) of the test substance which inhibits the specific binding of ^3 H-5-HT by 50%).

T3 sequence (P31652 whole entry): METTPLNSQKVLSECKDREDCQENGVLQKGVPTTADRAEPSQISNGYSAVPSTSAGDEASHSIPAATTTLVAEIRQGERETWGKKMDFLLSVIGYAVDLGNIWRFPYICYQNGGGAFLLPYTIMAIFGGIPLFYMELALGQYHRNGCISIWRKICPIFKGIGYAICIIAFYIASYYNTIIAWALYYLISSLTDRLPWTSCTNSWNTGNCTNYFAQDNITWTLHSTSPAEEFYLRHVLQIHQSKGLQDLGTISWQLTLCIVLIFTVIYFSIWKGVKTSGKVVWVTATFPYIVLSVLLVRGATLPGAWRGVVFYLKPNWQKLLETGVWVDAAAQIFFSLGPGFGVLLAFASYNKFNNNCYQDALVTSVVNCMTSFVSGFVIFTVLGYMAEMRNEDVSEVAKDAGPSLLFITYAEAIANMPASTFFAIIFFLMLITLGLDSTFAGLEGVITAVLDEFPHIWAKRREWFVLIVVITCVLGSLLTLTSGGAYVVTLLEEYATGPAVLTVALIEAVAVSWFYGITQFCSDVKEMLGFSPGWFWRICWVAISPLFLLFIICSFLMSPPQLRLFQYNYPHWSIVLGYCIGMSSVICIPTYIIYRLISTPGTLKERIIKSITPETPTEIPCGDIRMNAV
T2 sequence (Q63380 1-617): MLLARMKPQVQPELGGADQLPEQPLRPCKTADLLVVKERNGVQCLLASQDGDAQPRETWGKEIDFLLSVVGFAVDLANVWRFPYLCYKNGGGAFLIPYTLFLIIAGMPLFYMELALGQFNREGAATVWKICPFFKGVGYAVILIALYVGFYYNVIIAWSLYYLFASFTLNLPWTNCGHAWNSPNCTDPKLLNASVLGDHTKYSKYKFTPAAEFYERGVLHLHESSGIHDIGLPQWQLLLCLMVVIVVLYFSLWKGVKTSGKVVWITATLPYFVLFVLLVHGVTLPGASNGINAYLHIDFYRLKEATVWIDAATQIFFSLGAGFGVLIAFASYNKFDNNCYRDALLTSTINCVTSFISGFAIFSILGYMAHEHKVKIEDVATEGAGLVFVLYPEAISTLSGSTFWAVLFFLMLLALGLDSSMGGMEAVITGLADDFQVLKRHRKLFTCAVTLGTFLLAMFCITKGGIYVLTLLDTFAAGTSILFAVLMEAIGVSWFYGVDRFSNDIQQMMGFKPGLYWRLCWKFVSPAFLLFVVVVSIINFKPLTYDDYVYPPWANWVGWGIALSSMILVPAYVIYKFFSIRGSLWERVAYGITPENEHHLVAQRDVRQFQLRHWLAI
T1 sequence (P23977 whole entry): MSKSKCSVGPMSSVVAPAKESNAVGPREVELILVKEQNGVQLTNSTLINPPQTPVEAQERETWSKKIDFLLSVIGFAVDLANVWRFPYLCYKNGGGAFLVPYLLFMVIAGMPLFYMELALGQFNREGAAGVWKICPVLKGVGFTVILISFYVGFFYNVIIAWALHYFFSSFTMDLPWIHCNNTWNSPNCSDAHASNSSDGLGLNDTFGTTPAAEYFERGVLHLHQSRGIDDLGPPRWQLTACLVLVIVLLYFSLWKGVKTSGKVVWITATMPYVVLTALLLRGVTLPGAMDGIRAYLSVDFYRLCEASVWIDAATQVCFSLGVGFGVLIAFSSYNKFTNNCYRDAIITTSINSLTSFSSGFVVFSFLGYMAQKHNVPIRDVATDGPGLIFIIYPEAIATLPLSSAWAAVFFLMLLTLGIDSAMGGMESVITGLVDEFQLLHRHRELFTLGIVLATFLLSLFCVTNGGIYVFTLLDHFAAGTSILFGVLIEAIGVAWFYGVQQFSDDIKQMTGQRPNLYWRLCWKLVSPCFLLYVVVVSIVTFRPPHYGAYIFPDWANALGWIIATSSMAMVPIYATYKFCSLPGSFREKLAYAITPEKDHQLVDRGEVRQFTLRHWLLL

Take `OC1CCN2[C@H]3CC[C@@H]2[C@@H]1[C@@H](c1ccc(Cl)c(Cl)c1)C3` (stereo partly drawn) [(1S,2S,4S,7R)-2-(3,4-Dichlorophenyl)-8-azatricyclo[5.4.0.0^4,8]undecan-11-ol]: the IC50 in test [1] stood at 75 nM; in test [2] it was 4.1 nM; in test [3], 2.8 nM.

With `CON=C1CCN2[C@H]3CC[C@@H]2[C@@H]1[C@@H](c1ccc(Cl)c(Cl)c1)C3` [(1S,2S,4S,7R)-2-(3,4-Dichlorophenyl)-8-azatricyclo[5.4.0.0^4,8]undecan-11-one O-methyl-oxime], the IC50 stood at 12 nM in test [1], 2 nM in test [2] and 3.3 nM in test [3].

As for `O=C1CCN2[C@H]3CC[C@@H]2[C@@H]1[C@@H](c1ccc(Cl)c(Cl)c1)C3` [(1S,2S,4S,7R)-2-(3,4-Dichlorophenyl)-8-azatricyclo[5.4.0.0^4,8]undecan-11-one], the results for the IC50 in test [1], in test [2] and in test [3] were 180 nM, 35 nM and 7.5 nM, respectively.

`COC1CN2[C@H]3CC[C@@H]2[C@@H]1[C@@H](c1ccc(Cl)c(Cl)c1)C3` (stereo partly drawn) [(1S,3S,4S,8R)-3-(3 ,4-Dichlorophenyl)-5-methoxy-7-azatricyclo[5.3.0.0^4,8]decane]: the IC50 in test [1] is 22 nM; in test [2], 1.4 nM; in test [3], 0.1 nM.

Consider `CC(=O)OC1CN2[C@H]3CC[C@@H]2[C@@H]1[C@@H](c1ccc(Cl)c(Cl)c1)C3` (stereo partly drawn) [(1S,3S,4S,8R)-3-(3,4-Dichlorophenyl)-7-azatricyclo[5.3.0.0^4,8]dec-5-yl acetate fumarate], for which the IC50 in test [1] is 210 nM; in test [2], 6.1 nM; in test [3], 7.5 nM.

On to `OC1CN2[C@H]3CC[C@@H]2[C@@H]1[C@@H](c1ccc(Cl)c(Cl)c1)C3` (stereo partly drawn) [(1S,3S,4S,8R)-3-(3,4-Dichlorophenyl)-7-azatricyclo[5.3.0.0^4,8]decan-5-ol], for which the half-maximal inhibitory concentration (IC50) in test [1] is 250 nM; in test [2], 7.4 nM; in test [3] it was 1.8 nM.

For `CON=C1CN2[C@H]3CC[C@@H]2[C@@H]1[C@@H](c1ccc(Cl)c(Cl)c1)C3` [(1S,3S,4S,8R)-3-(3,4-Dichlorophenyl)-7-azatricyclo[5.3.0.0^4,8]decan-5-one O-methyl-oxime], the concentration for half-maximal inhibition (IC50) in test [1] turned out to be 16 nM; in test [2] it was 0.9 nM; in test [3], 3.2 nM.

For `O=C1CN2[C@H]3CC[C@@H]2[C@@H]1[C@@H](c1ccc(Cl)c(Cl)c1)C3` [(1S,3S,4S,8R)-3-(3,4-Dichlorophenyl)-7-azatricyclo[5.3.0.0^4,8]decan-5-one], the IC50 in test [1] was determined as 120 nM; in test [2], 5.2 nM; in test [3] it was 2.6 nM.
